Measurements: patent US12152012B2, “BRAG2 inhibitors and applications thereof” (CENTRE NATIONAL DE LA RECHERCHE SCIENTIFIQUE, priority 2018, dated 2024)

Tests used:
[1] = biological target: T1, EFA6 (Sec7PHCt construct) (Homo sapiens, UniProt A5PKW4); assay: Nucleotide exchange kinetics on liposomes, activation of myristoylated Arf1; assay type: biochemical; settings: 50 μM
T1 construct: human EFA6^Sec7 (527-727) and EFA6^Sec7PHCt (527-1024); made in house
Protocol: (§1) The effect of Bragsin1 on the GEF efficiency of representative human ArfGEFs was evaluated by fluorescence kinetics using highly purified recombinant Arf GTPases and ArfGEFs. In a first series of assays, the Sec7 domains of BIG1, a Golgi ArfGEF, and of ARNO, EFA6a and BRAG2, which function at the plasma membrane, were used. When tested in solution, Bragsin1 had no effect on the activation of Arf1 by any of these Sec7 domains (FIGS. 2a and 14). Separately, we reconstituted the activation of myristoylated Arf1 by the same ArfGEFs on liposomes using ArfGEF constructs that contain a membrane-binding domain (DCB-HUS domain for BIG1, PH domains for the other GEFs). […] BRAG2 activates several Arf isoforms, including the plasma membrane-located Arf6 isoform. […] Bragsin1 and Bragsin2 have the same IC50 towards BRAG2 ([…]) according to dose-response analysis, confirming that Bragsin1 and Bragsin2 can be used interchangeably (FIG. 2d). The specific inhibition of BRAG2 by Bragsin in vitro predicts that BRAG2 silencing by siRNA should yield the same phenotype as treatment by the small molecule. Silencing of BRAG2 induced the redistribution of TGN46 into tubular or punctate structures, which phenocopied the effects induced by Bragsin (FIGS. 2e, 17 and 18). […] Silencing of ARNO, which is located at the plasma membrane, had no effect on TGN46 distribution. Overexpression of BRAG2-mCherry rescued the dispersion of the TGN46 structure induced by Bragsin, which is consistent with the silencing experiments (FIG. 2f). Bragsin is a specific inhibitor of the ArfGEF BRAG2 in vitro and in cells according to these experiments. These oexperiments identify a mechanism of inhibition that requires the membrane to manifests itself.
(§2) Bovine Δ17Arf1 and human Δ13Arf6, full-length myristoylated Arf1 and Arf6, human BRAG2^Sec7 (390-594) and BRAG2^Sec7PH (390-811), human EFA6^Sec7 (527-727) and EFA6^Sec7PHCt (527-1024), ARNO^Sec7 (50-256), BIG1^Sec7 (691-889), BIG1^DcbHusSec7 (2-888) and ARNO^Sec7PH (50-399) were expressed and purified as in (Benabdi, S. et al. Family-wide Analysis of the Inhibition of Arf Guanine Nucleotide Exchange Factors with Small Molecules: Evidence of Unique Inhibitory Profiles. Biochemistry 56, 5125-5133 (2017)) and references therein. BRAG2^Sec7PH mutants were purified as the wild type protein. Purification of human full-length Rac1 carrying a 6xHis tag in C-terminus and human TRIO^DH1PH1 (1232-1550) was described in (Peurois, F. et al. Characterization of the activation of small GTPases by their GEFs on membranes using artificial membrane tethering. Biochem J 474, 1259-1272 (2017)).
(§3) Lipids (of natural origin) were from Avanti Polar Lipids, except NBD-PE from Sigma. Liposomes were prepared as described in (Aizel, K. et al. Integrated conformational and lipid-sensing regulation of endosomal ArfGEF BRAG2. PLOS Biol 11, e1001652 (2013)) and extruded at 0.2 μm. For the Arf GEF specificity studies, liposomes contained 48% phosphatidylcholine (PC), 20% phosphatidylethanolamine (PE), 30% phosphatidylserine (PS) and 2% phosphatidylinositol-4,5-bisphosphate (PIP2). For Rac activation assay, liposomes contained 43% PC, 20% PE, 10% PS, 20% cholesterol, 2% PIP2, 5% NiNTA lipids and 0.2% NBD-PE. To exclude aggregation or disruption of the liposomes, their size distribution was controlled before and after experiments by dynamic light scattering as described in (Benabdi, S. et al. Biochemistry 56, 5125-5133 (2017)). Dose-response and flotation assays were carried out with liposomes containing 37.9% PC, 20% PE, 20% PS, 2% PIP2, 20% cholesterol and 0.1% NBD-PE. Flotation assays were carried out as in 18.
(§4) Nucleotide exchange kinetics were monitored by tryptophan fluorescence with excitation/emission wavelengths of 292/340 nm using a Cary Eclipse fluorimeter (Varian) at 37° C. and under continuous stirring as described in ^50,51. […]

[2] = biological target: T2, BIG1 (DCB-HUS-Sec7 construct) (Homo sapiens, UniProt Q9Y6D6); assay: as above; assay type: biochemical; settings: 50 μM
T2 construct: BIG1^Sec7 (691-889), BIG1^DcbHusSec7 (2-888); made in house
T2 sequence (Q9Y6D6 2-888): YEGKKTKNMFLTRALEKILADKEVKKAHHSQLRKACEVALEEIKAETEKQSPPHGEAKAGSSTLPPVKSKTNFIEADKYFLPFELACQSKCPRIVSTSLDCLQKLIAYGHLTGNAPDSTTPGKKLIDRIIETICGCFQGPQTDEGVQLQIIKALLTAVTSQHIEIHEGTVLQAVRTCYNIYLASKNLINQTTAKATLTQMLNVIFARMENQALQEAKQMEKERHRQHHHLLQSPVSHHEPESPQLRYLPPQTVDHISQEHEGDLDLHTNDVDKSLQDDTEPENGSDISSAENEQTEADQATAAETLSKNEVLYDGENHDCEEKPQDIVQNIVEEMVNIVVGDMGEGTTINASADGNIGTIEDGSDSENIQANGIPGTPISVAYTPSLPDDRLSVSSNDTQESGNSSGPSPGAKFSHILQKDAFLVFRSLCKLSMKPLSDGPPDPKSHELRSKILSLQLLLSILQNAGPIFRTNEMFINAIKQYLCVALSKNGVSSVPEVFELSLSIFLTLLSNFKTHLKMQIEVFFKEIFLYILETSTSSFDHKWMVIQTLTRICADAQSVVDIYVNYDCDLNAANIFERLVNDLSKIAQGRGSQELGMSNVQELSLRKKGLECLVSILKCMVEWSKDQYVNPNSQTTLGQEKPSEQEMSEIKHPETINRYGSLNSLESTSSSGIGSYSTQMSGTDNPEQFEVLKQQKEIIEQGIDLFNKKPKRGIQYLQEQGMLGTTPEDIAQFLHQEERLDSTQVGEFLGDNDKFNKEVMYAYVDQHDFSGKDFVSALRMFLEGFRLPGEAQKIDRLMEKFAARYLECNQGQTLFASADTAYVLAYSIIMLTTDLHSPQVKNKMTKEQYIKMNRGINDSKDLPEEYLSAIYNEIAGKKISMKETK
Protocol: as §1, §2, §3, §4

T1 sequence (A5PKW4 527-1024): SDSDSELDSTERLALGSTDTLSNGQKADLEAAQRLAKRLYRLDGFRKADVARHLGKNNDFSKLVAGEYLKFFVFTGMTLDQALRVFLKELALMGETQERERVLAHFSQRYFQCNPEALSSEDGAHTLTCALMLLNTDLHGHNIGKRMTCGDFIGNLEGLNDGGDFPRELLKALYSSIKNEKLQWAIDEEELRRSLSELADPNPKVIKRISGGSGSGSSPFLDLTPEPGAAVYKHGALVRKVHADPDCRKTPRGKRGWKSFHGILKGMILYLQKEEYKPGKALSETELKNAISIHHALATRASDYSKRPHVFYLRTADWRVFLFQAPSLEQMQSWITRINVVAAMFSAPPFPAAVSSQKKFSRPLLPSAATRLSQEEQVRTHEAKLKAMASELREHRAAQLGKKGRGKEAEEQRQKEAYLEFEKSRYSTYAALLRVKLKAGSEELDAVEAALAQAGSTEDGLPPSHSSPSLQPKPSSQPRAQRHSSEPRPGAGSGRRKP

Effect on ArfGEF activity on liposomes [1]: no effect
Effect on ArfGEF activity on liposomes [2]: no effect
Compound: Cc1ccc2oc(C(F)(F)F)cc(=O)c2c1[N+](=O)[O-] [Bragsin1, 6-methyl-5-nitro-2-(trifluoromethyl)-4H-chromen-4-one]
